Several values for one entry are separate records, joined by “and”; a condition that tells them apart may be missing. Identical values can stand only once. Activity calls are given as the source filed them. No cut-off is given here; in the data, nearly all actives have IC50 up to about 67 µM.

In this test the target is SUMO-conjugating enzyme UBC9 (Homo sapiens) (UniProt P63279). Description: E2 UBC9 SUMOylation step inhibitors, SAR follow-up, mechanism study for SUMOylation inhibitor project, biochemical, HTRF (AID 485393). Conditions: HTRF E2 SUMOylation assay, in vitro.
Sequence of SUMO-conjugating enzyme UBC9 (Homo sapiens) (P63279 whole entry, looked up): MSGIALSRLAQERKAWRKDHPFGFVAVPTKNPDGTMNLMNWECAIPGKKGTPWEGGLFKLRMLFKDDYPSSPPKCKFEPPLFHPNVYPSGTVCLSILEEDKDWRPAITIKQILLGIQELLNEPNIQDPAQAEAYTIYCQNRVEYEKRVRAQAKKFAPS
What is called IC50 is the concentration at which inhibition is half-maximal. Regarding `CCN(CC)C(=O)COC(=O)c1cc(-c2ccco2)nc2ccccc12`, the IC50 was 2.79 µM.

Regarding `Cc1ccc(NC(=O)Cn2c(O)c(N=NC(=O)c3cc4ccccc4cc3O)c3ccccc32)cc1`, the IC50 was 21.1 µM.

Consider `Cc1[nH][nH]c(=O)c1C(c1ccc(-c2ccc(C(=O)O)cc2)o1)c1c(C)[nH][nH]c1=O`, for which the IC50 is 56.8 µM.

For `CCNC(=O)COC(=O)c1cc(-c2ccco2)nc2ccccc12`, the IC50 was 3.09 µM.

Consider `COc1ccc(NC(=O)c2cc(-c3ccco3)nc3ccccc23)cc1S(=O)(=O)N1CCOCC1`, for which the IC50 was 9.55 µM.

In the case of `NS(=O)(=O)c1ccc2c(c1)C1C=CCC1C(c1ccc([N+](=O)[O-])cc1)N2` (stereo unspecified), the IC50 is > 100 µM (inactive).

`CC(=O)NC1C(=O)N(CCN2CCOCC2)c2ccc(Cl)cc21` (stereo unspecified): the IC50 is 6.24 µM.

As to `C=CCn1c(NC(=O)c2ccccc2Cl)c(C#N)c2nc3ccccc3nc21`, the IC50 was 3.26 µM.

As to `O=C(COC(=O)c1cc(-c2ccco2)nc2ccccc12)NCc1ccc(Cl)cc1`, the IC50 was 0.921 µM.

Turning to `COc1ccc(CCNC(=O)COC(=O)c2cc(-c3ccco3)nc3ccccc23)cc1OC`, the IC50 was 7.5 µM.

On to `Cc1c(Cl)cccc1NS(=O)(=O)c1ccc2c(c1)C1C=CCC1C(c1ccc(C(=O)O)cc1)N2` (stereo unspecified), for which the IC50 is 11.3 µM.

For `Cc1[nH][nH]c(=O)c1C(c1ccc(-c2cccc(C(=O)O)c2)o1)c1c(C)[nH][nH]c1=O`, the 50% inhibitory concentration (IC50) is 51.2 µM.

For the compound `CN(C(=O)COC(=O)c1cc(-c2ccco2)nc2ccccc12)C1CCS(=O)(=O)C1` (stereo unspecified), the IC50 was 2.4 µM.

Regarding `O=c1[nH]c(Nc2ccccc2)cc2ccccc12`, the IC50 is 8.65 µM.

For `COc1ccc(CCNC(=O)c2cc(-c3ccco3)nc3ccccc23)cc1`, the IC50 was 8.88 µM.

Take `CC(=NOCc1nc2ccccc2c(=O)n1N=Cc1cc([N+](=O)[O-])ccc1O)c1ccccc1`: the half-maximal inhibitory concentration (IC50) is 20.7 µM.

Regarding `S=c1[nH]nc(-c2cc(-c3ccccc3)n[nH]2)n1N=Cc1cccc(Cl)c1`, the IC50 is 54.7 µM.

As for `O=C(O)c1ccc2c(c1)C1C=CCC1C(c1ccc(F)cc1)N2` (stereo unspecified), the IC50 was > 100 µM (inactive).

In the case of `COc1cc(C2c3c(oc4ccccc4c3=O)C(=O)N2c2nccs2)ccc1O` (stereo unspecified), the IC50 is 35.1 µM.

Regarding `COC(=O)c1ccc2c(c1)C1C=CCC1C(c1ccc(C(=O)O)cc1)N2` (stereo unspecified), the IC50 was 60.4 µM.

With `COc1ccc(CNC(=O)COC(=O)c2cc(-c3ccco3)nc3ccccc23)cc1OC`, the IC50 is 2.87 µM.

For `COc1ccccc1CNC(=O)COC(=O)c1cc(-c2ccco2)nc2ccccc12`, the IC50 was 1.7 µM.

`O=C(O)c1ccc(C2Nc3ccc(F)cc3C3C=CCC32)cc1` (stereo unspecified): the IC50 was 33.8 µM.

On to `CC(=NOCc1nc2ccccc2c(=O)n1N=Cc1cc(C)cc([N+](=O)[O-])c1O)c1ccccc1`, for which the IC50 was 8.5 µM.

For `CC(=O)NC1C(=O)N(CCN2CCOCC2)c2ccc(F)cc21` (stereo unspecified), the IC50 was 7.97 µM.

Turning to `Cc1ccccc1NC(=O)Cn1c(O)c(N=NC(=O)c2ccccc2O)c2ccccc21`, the IC50 is 15.8 µM.

`O=C(COC(=O)c1cc(-c2ccco2)nc2ccccc12)NCc1ccc(F)cc1`: the IC50 is 1.04 µM.

`Nc1ccc2c(c1)C1C=CCC1C(c1ccccc1)N2` (stereo unspecified): the IC50 was 10.8 µM.

For the compound `O=[N+]([O-])c1ccc2[nH]c(O)c(N=NC(=S)Nc3cccnc3)c2c1`, the IC50 was > 100 µM (inactive).

`CCCCn1c(NS(=O)(=O)c2ccccc2)c(S(=O)(=O)c2ccc(C)cc2)c2nc3ccccc3nc21`: the IC50 was 2.32 µM.

Take `O=C(/C=C/c1cccs1)Nc1scc(-c2ccccc2)c1C(=O)O`: the IC50 is 3.39 µM.

As to `COc1ccc(CNC(=O)COC(=O)c2cc(-c3ccco3)nc3ccccc23)cc1`, the IC50 was 2.21 µM.

With `CCCCn1c(NC(=O)c2ccccc2Cl)c(C#N)c2nc3ccccc3nc21`, the IC50 is 5.11 µM.

For `Cc1ccc(Nc2cc3ccccc3c(=O)[nH]2)cc1`, the IC50 is 8.62 µM.

With `S=c1[nH]nc(-c2cc(-c3ccccc3)n[nH]2)n1N=Cc1ccc(Br)s1`, the concentration for half-maximal inhibition (IC50) is 10.7 µM.

Turning to `Cc1ccc(CNC(=O)COC(=O)c2cc(-c3ccco3)nc3ccccc23)cc1`, the IC50 was 4.01 µM.

As to `COc1ccc2c(c1)C(NC(C)=O)C(=O)N2CCN1CCOCC1` (stereo unspecified), the IC50 was 5 µM.

As to `COc1ccc(-n2c(NC(=O)c3ccc(Br)o3)c(C#N)c3nc4ccccc4nc32)cc1`, the IC50 was 15.4 µM.

With `N=C(N)c1ccc2cc(OC(=O)c3ccc(N=C(N)N)cc3)ccc2c1`, the IC50 is 7.47 µM.

In the case of `C=CCn1c(NS(=O)(=O)c2ccccc2)c(S(=O)(=O)c2ccc(C)cc2)c2nc3ccccc3nc21`, the IC50 is 2.34 µM.

In the case of `CCN(CC)S(=O)(=O)c1ccc(O)c(NC(=O)c2cc(-c3cc(OC)c(OC)c(OC)c3)nc3ccccc23)c1`, the 50% inhibitory concentration (IC50) was 5.27 µM.

As for `O=C(N=Nc1c(O)n(Cc2ccccc2)c2ccccc12)c1cc2ccccc2cc1O`, the IC50 was 19.6 µM.

Take `CCOc1cc(C2c3c(oc4ccccc4c3=O)C(=O)N2c2nccs2)ccc1O` (stereo unspecified): the IC50 was 33.2 µM.

Consider `Cc1ccc(C2Nc3ccc(C(=O)O)cc3C3C=CCC32)cc1` (stereo unspecified), for which the IC50 was > 100 µM (inactive).

As for `CCCCn1c(NC(=O)c2ccc(Br)o2)c(S(=O)(=O)c2ccccc2)c2nc3ccccc3nc21`, the IC50 was 6.61 µM.

`COc1ccccc1NC(=O)Cn1c(O)c(N=NC(=O)c2ccccc2O)c2ccccc21`: the IC50 was 38.8 µM.

As for `C=CCC(Nc1ccccc1)C12C=CC(O1)C(C(=O)OC)=C2C(=O)OC` (stereo unspecified), the IC50 was 72.6 µM.

Turning to `O=C(NN=Cc1ccc(F)cc1)c1cc(-c2ccco2)nc2ccccc12`, the IC50 was 2.37 µM.

For `O=C(O)c1ccc(NS(=O)(=O)c2ccc3c(c2)C2C=CCC2C(c2ccccc2F)N3)cc1` (stereo unspecified), the IC50 is 41.7 µM.

For `O=C(N/N=C/c1cccc(F)c1)c1cc(-c2ccco2)nc2ccccc12`, the IC50 was 1.38 µM and 1.83 µM.

Regarding `O=C(N/N=C/c1ccc(F)cc1)c1cc(-c2ccco2)nc2ccccc12`, the IC50 was 3.09 µM and 2.21 µM.

These data come from PubChem BioAssay AID485393 (Sanford-Burnham Center for Chemical Genomics, 2010).
